Columns and labels:
[1] = test system: human A549 lung cancer xenografts; assay: Hematoxylin & Eosin (H&E) staining of extracted A549 xenograft tumors (necrosis grading); format: in vivo, BALB/c Nude mouse; conditions: N=10
From the text: Histopathological test: The extracted tumors were fixed in 10% neutral buffered formalin solution (10% neutral buffered formalin). After sectioning the tumors to a certain thickness (about 3 mm), those were subjected to the general preparation procedure, embedded in paraffin, cut into 4 to 5 μm size, and tissue sections were stained with Hematoxylin and Eosin (H&E) and TUNEL. IHC (Immunohistochemistry) slides, cut into 4 to 5 μm size, were produced and sent to the sponsor (Negative Control Group (G1), Test substance 2 (G3, Animal ID Nos.: 1301, 1302, 1303, 1307, 1310), Test substance 3 (G4, Animal ID Nos.: 1401, 1402, 1404, 1408, 1409)). Determination of Hematoxylin & Eosin (H&E) staining results: Necrosis of tumors was assessed by grading (±, +, ++, +++, ++++) the extent of necrosis in the whole section of the tumor. Necrosis was evaluated by morphological changes such as collapse or disappearance of the nucleus and eosinophilic change of cytoplasm. The extent of tumor necrosis was determined by the percentage of the following necrosis area. Histopathological test (Table 7, FIGS. 7-11): The extracted fixed tumor was cut to a certain thickness (about 3 mm), then subjected to general tissue treatment, paraffin-embedded to produce blocks, and tissue sections of 4 to 5 μm in size were prepared. Then, Hematoxylin & Eosin (H&E) staining and TUNEL staining were performed.

[2] = test system: human A549 lung cancer xenografts; assay: Anti-cancer efficacy in nude mice carrying human A549 lung cancer xenografts (tumor volume, tumor weight, growth inhibition rate); format: in vivo, BALB/c Nude mouse; conditions: for Tumor weights (mean): tumors weighed at day 29; for Tumor growth inhibition rate (IR): IR=(1-T/C)x100 from mean tumor weights, day 29
Method: The anti-cancer efficacy of OKN-007 was assessed after oral administration in nude mice carrying human A549 lung cancer xenografts implanted subcutaneously in the flank. Human lung cancer cell line, A549 was used. […] The frozen cells were thawed in a water bath. Cells were placed in a tube containing the medium and centrifuged (1,000 rpm, 5 minutes) to discard the supernatant. After re-suspending with the culture medium, cells were placed in a cell culture flask and incubated in a 5% CO2 incubator at 37° C. Cells were sub-cultured at a ratio of 1:5 when grown with confluency of 70-80% in the culture container. Cells cultured on the day of cell line transplantation were centrifuged (1,000 rpm, 5 minutes) to discard the supernatant and to make cell suspension with D-PB S. Then, the cell suspension was mixed with Matrigel at a ratio of 1:1 (5×10^7 cells/mL). BALB/c Nude mouse, [NT]-Foxnlnu/CrlOri, SPF was used. Sex, number, age, and body weight range of animals at receipt: The mice (65 mice) were male, 5 weeks old, and had about 14.5-19.6 g weight at the receipt. Cell transplantation: After the quarantine-acclimation period, the body weight measurement and cell transplantation in healthy animals were performed. […] Prepared cell (1×10^7 cells/0.2 mL) suspension was injected subcutaneously into the right flank with disposable syringes. […] Group assignment: After transplanting cells, each tumor size was monitored for 65 animals. When tumor volume reached within 87-112 mm^3, 50 animals were assigned to the respective groups with an average tumor volume of about 99 mm^3. Based on the tumor volume, animals were selected and randomly distributed into 5 groups (10 animals/group). Dosing Route: Oral administration. The route of administration was oral because the clinical application of the test substance is oral. Method and frequency of administration: For negative control and test substance, oral administration was performed once a day for 4 weeks for a total of 28 times using a disposable syringe. For positive control, intraperitoneal administration was performed once a week for 4 weeks for a total of 4 times using a disposable syringe. Dosing Route: The dose levels of the test substance were selected at 150, 300, and 600 mg/kg. The dose level of the positive substance was selected at 2 mg/kg. The dose volume was selected at 10 mL/kg for all groups, and the individual dose was calculated based on the bodyweight of animals just prior to dosing. Measurement of tumor volume: The largest diameter (a) and the smallest diameter (b) of each tumor were measured using calipers twice a week during the observation period. The tumor volume (TV) was calculated twice a week according to the following formula: TV (mm^3)=(a (mm)×b^2 (mm^2))/2. The volume of a tumor before administration to each animal was set to the value measured at the time of group assignment. Tumor removal and measurement of body weight: After the observation period, animals were anesthetized by inhalation of isoflurane. After the tumor was extracted, the weight of the removed tumor was recorded. The tumor growth inhibition rate (IR) was calculated using the following formula: IR (%)=(1-T/C)×100, where T is a mean tumor weight in the test substance group, and positive substance group, and C is a mean tumor weight in the negative control group.

CC(C)(C)/[N+]([O-])=C/c1ccc(S(=O)(=O)O)cc1S(=O)(=O)O [OKN-007, Disodium 4-[(Z)-[tert-butyl(oxido)azaniumylidene]methyl]benzene-1,3-disulfonate]
Necrosis grade + : number of animals ([1]; G2, 150 mg/kg P.O.): 3 | Necrosis grade ++ (moderate): number of animals ([1]; G2, 150 mg/kg P.O.): 2 | Necrosis grade +++ (marked): number of animals ([1]; G2, 150 mg/kg P.O.): 0 | Necrosis grade ++++ (severe): number of animals ([1]; G2, 150 mg/kg P.O.): 0 | Necrosis grade ± (minimal): number of animals ([1]; G2, 150 mg/kg P.O.): 5 | Necrosis grade + : number of animals ([1]; G3, 300 mg/kg P.O.): 2 | Necrosis grade ++ (moderate): number of animals ([1]; G3, 300 mg/kg P.O.): 1 | Necrosis grade +++ (marked): number of animals ([1]; G3, 300 mg/kg P.O.): 0 | Necrosis grade ++++ (severe): number of animals ([1]; G3, 300 mg/kg P.O.): 0 | Necrosis grade ± (minimal): number of animals ([1]; G3, 300 mg/kg P.O.): 7 | Necrosis grade + : number of animals ([1]; G4, 600 mg/kg P.O.): 2 | Necrosis grade ++ (moderate): number of animals ([1]; G4, 600 mg/kg P.O.): 2 | Necrosis grade +++ (marked): number of animals ([1]; G4, 600 mg/kg P.O.): 0 | Necrosis grade ++++ (severe): number of animals ([1]; G4, 600 mg/kg P.O.): 0 | Necrosis grade ± (minimal): number of animals ([1]; G4, 600 mg/kg P.O.): 6 | Tumor weights (mean) ([2]; G2, 150 mg/kg P.O. once a day for 4 weeks): 0.47 g | Tumor volume (mean) ([2]; G2, 150 mg/kg P.O. once a day, day 1 (before administration)): 99 mm^3 | Tumor volume (mean) ([2]; G2, 150 mg/kg P.O. once a day, day 5 after administration): 152 mm^3 | Tumor volume (mean) ([2]; G2, 150 mg/kg P.O. once a day, day 8 after administration): 200 mm^3 | Tumor volume (mean) ([2]; G2, 150 mg/kg P.O. once a day, day 12 after administration): 240 mm^3 | Tumor volume (mean) ([2]; G2, 150 mg/kg P.O. once a day, day 15 after administration): 243 mm^3 | Tumor volume (mean) ([2]; G2, 150 mg/kg P.O. once a day, day 19 after administration): 306 mm^3 | Tumor volume (mean) ([2]; G2, 150 mg/kg P.O. once a day, day 22 after administration): 376 mm^3 | Tumor volume (mean) ([2]; G2, 150 mg/kg P.O. once a day, day 26 after administration): 466 mm^3 | Tumor volume (mean) ([2]; G2, 150 mg/kg P.O. once a day, day 29 after administration): 603 mm^3 | Tumor growth inhibition rate (IR) ([2]; G2, 150 mg/kg P.O.): 48.9% | Tumor weights (mean) ([2]; G3, 300 mg/kg P.O. once a day for 4 weeks): 0.43 g | Tumor volume (mean) ([2]; G3, 300 mg/kg P.O. once a day, day 1 (before administration)): 99 mm^3 | Tumor volume (mean) ([2]; G3, 300 mg/kg P.O. once a day, day 5 after administration): 146 mm^3 | Tumor volume (mean) ([2]; G3, 300 mg/kg P.O. once a day, day 8 after administration): 172 mm^3 | Tumor volume (mean) ([2]; G3, 300 mg/kg P.O. once a day, day 12 after administration): 182 mm^3 | Tumor volume (mean) ([2]; G3, 300 mg/kg P.O. once a day, day 15 after administration): 212 mm^3 | Tumor volume (mean) ([2]; G3, 300 mg/kg P.O. once a day, day 19 after administration): 254 mm^3 | Tumor volume (mean) ([2]; G3, 300 mg/kg P.O. once a day, day 22 after administration): 310 mm^3 | Tumor volume (mean) ([2]; G3, 300 mg/kg P.O. once a day, day 26 after administration): 390 mm^3 | Tumor volume (mean) ([2]; G3, 300 mg/kg P.O. once a day, day 29 after administration): 460 mm^3 | Tumor growth inhibition rate (IR) ([2]; G3, 300 mg/kg P.O.): 53.3% | Tumor growth inhibition rate (IR) ([2]; G3, 300 mg/kg P.O., listed as test substance): 53.5% | Tumor weights (mean) ([2]; G4, 600 mg/kg P.O. once a day for 4 weeks): 0.38 g | Tumor volume (mean) ([2]; G4, 600 mg/kg P.O. once a day, day 1 (before administration)): 99 mm^3 | Tumor volume (mean) ([2]; G4, 600 mg/kg P.O. once a day, day 5 after administration): 149 mm^3 | Tumor volume (mean) ([2]; G4, 600 mg/kg P.O. once a day, day 8 after administration): 176 mm^3 | Tumor volume (mean) ([2]; G4, 600 mg/kg P.O. once a day, day 12 after administration): 179 mm^3 | Tumor volume (mean) ([2]; G4, 600 mg/kg P.O. once a day, day 15 after administration): 209 mm^3 | Tumor volume (mean) ([2]; G4, 600 mg/kg P.O. once a day, day 19 after administration): 249 mm^3 | Tumor volume (mean) ([2]; G4, 600 mg/kg P.O. once a day, day 22 after administration): 288 mm^3 | Tumor volume (mean) ([2]; G4, 600 mg/kg P.O. once a day, day 26 after administration): 331 mm^3 | Tumor volume (mean) ([2]; G4, 600 mg/kg P.O. once a day, day 29 after administration): 407 mm^3 | Tumor growth inhibition rate (IR) ([2]; G4, 600 mg/kg P.O.): 58.7%
